Results reported in US20070149508A1, “Six membered heteroaromatic inhibitors targeting resistant kinase mutations” (TargeGen, Inc., priority 2005, published 2007).
Counter-ions that a name gives are not always drawn.

Columns and labels:
Abl (T315I) = target: T1, Abl (T315I) (Homo sapiens, UniProt P00519, T315I); experiment: Abl (T315I) Kinase Assay (KinaseGlo luminescent detection of residual ATP); type: biochemical; settings: Abl (T315I) IC50 (nM), Abl (T315I) (Upstate, 17 ng/well), Abltide 100 uM, ATP 500 nM, 60 minutes at 37° C.
T1 construct: purchased Upstate
Procedure: The assay was performed similarly to the Abl kinase assay. Abl (T315I) (Upstate, 17 ng/well); Abltide substrate (100 uM) and ATP (500 nM) comprised the reaction mixture. Compound was similarly diluted, and the reaction plate was incubated for 60 minutes at 37° C.

Abl kinase = Abl kinase (Homo sapiens, UniProt P00519); experiment: biochemical; settings: Abl IC50 (nM), Abl kinase (Invitrogen, 20 ng/well), Abltide 100 μM, ATP 500 nM, 37° C. for 60 minutes, top concentration 10 uM

| Compound | IC50 (Abl (T315I)) [nM] | IC50 (Abl kinase) [nM] |
| --- | --- | --- |
| C[C@H](N)C(=O)N1CCC(S(=O)(=O)c2ccc(Nc3ncc(/C=C/c4cccc5[nH]ccc45)cn3)cc2)CC1 [(S)-1-(4-(4-(5-((E)-2-(1H-indol-4-yl)vinyl)pyrimidin-2-ylamino)phenylsulfonyl)piperidin-1-yl)-2-aminopropan-1-one hydrochloride] | 464 | 43 |
| Nc1nc2ccc(/C=C/c3cnc(Nc4ccc(CCCN5CCCC5)cc4)nc3)cc2s1 [6-[(E)-2-(2-{[4-(3-pyrrolidin-1-ylpropyl)phenyl]amino}pyrimidin-5-yl)vinyl]-1,3-benzothiazol-2-amine] | 9450 | 5150 |
| O=S(=O)(NCCN1CCCC1)c1ccc(Nc2ncc(/C=C/c3cccc4[nH]ncc34)cn2)cc1 [4-{5-[2-(1H-Indazol-4-yl)-vinyl]-pyrimidin-2-ylamino}-N-(2-pyrrolidin-1-yl-ethyl)-benzenesulfonamide] | 133 | 7.6 |
| Nc1nc2ccc(/C=C/c3cnc(Nc4ccc(S(=O)(=O)N5CCNCC5)c(N5CCNCC5)c4)nc3)cc2s1 [6-[(E)-2-(2-{[3-piperazin-1-yl-4-(piperazin-1-ylsulfonyl)phenyl]amino}pyrimidin-5-yl)vinyl]-1,3-benzothiazol-2-amine] | 152 | 318 |
| C(=C\c1cccc2[nH]ccc12)/c1cnc(Nc2ccc(OC3CCNCC3)cc2)nc1 [5-[(E)-2-(1H-indol-4-yl)vinyl]-N-[4-(piperidin-4-yloxy)phenyl]pyrimidin-2-amine trifluoroacetic acid salt] | 820 | 21 |
| O=C(Nc1ccc(Cl)c(/C=C/c2cnc(Nc3ccc(S(=O)(=O)C4CCNCC4)cc3)nc2)c1)c1cccc(C(F)(F)F)c1 [N-[4-Chloro-3-(2-{2-[4-(piperidine-4-sulfonyl)-phenylamino]-pyrimidin-5-yl}-vinyl)-phenyl]-3-trifluoromethyl-benzamide] | 2000 | 12 |
| Nc1noc2c(/C=C/c3cnc(Nc4ccc(S(=O)(=O)N5CCNCC5)c(NCCO)c4)nc3)cccc12 [2-{[5-({5-{(E)-2-(3-amino-1,2-benzisoxazol-7-yl)vinyl]pyrimidin-2-yl}amino)-2-(piperazin-1-ylsulfonyl)phenyl]amino}ethanol] | 1860 | 34 |
| C=Cc1cnc(Nc2ccc(S(=O)(=O)N3CCNCC3)c(N3CCNCC3)c2)nc1 [N-[3-piperazin-1-yl-4-(piperazin-1-ylsulfonyl)phenyl]-5-vinylpyrimidin-2-amine trifluoroacetic acid salt] | 4640 | 22200 |
| O=S(=O)(CCCN1CCCC1)c1ccc(Nc2ncc(/C=C/c3cccc4[nH]ccc34)cn2)cc1 [5-[(E)-2-(1H-indol-4-pyrrolidin-1-ylpropyl)sulfonyl]phenyl}pyrimidin-2-amine] | 386 | 13 |
| O=S(=O)(c1ccc(Nc2ncc(/C=C/c3cccc4[nH]ccc34)cn2)cc1)N(CCO)C1CCNCC1 [N-(2-hydroxyethyl)-4-({5-[(E)-2-(1H-indol-4-yl)vinyl]pyrimidin-2-yl}amino)-N-piperidin-4-ylbenzenesulfonamide] | 728 | 430 |
| O=S(=O)(c1ccc(Nc2ncc(/C=C/c3cccc(O)c3)cn2)cc1C(F)(F)F)N1CCNCC1 [3-(2-{2-[4-(Piperazine-1-sulfonyl)-3-trifluoromethyl-phenylamino]-pyrimidin-5-yl}-vinyl)-phenol] | 1410 | 222 |
| O=S(=O)(c1cccc(Nc2ncc(/C=C/c3cccc4[nH]ccc34)cn2)c1)N1CCNCC1 [5-[(E)-2-(1H-indol-4-yl)vinyl]-N-{3-(piperazin-1-ylsulfonyl)phenyl]pyrimidin-2-amine] | ~10000 | 244 |
| Nc1nc2cc(C(F)(F)F)cc(/C=C/c3cnc(Nc4ccc(S(=O)(=O)C5CCNCC5)cc4)nc3)c2[nH]1 [7-((E)-2-(2-(4-(piperidin-4-ylsulfonyl)phenylamino)pyrimidin-5-yl)vinyl)-5-(trifluoromethyl)-1H-benzo[d]imidazol-2-amine] | 254 | 130 |
| Nc1nc2ccc(/C=C/c3cnc(Nc4ccc(S(=O)(=O)N5CCCNCC5)cc4F)nc3)cc2s1 [(E)-6-(2-(2-(4-(1,4-diazepan-1-ylsulfonyl)-2-fluorophenylamino)pyrimidin-5-yl)vinyl)benzo[d]thiazol-2-amine hydrochloride] | 6980 | 10800 |
| O=S(=O)(NCCO)c1ccc(Nc2ncc(/C=C/c3ccccc3)cn2)cc1N1CCNCC1 [N-(2-hydroxyethyl)-4-({5-[(E)-2-phenylvinyl]pyrimidin-2-yl}amino)-2-piperazin-1-ylbenzenesulfonamide trifluoroacetic acid salt] | 7340 | 406 |
| Nc1nc2ccc(/C=C/c3cnc(Nc4ccc(S(=O)(=O)N5CCC(CO)CC5)cc4)nc3)cc2s1 [(1-{[4-({5-[(E)-2-(2-amino-yl)vinyl]pyrimidin-2-amino)phenyl]sulfonyl}piperidin-4-yl)methanol] | 194 | 437 |
| O=S(=O)(NCCO)c1ccc(Nc2ncc(/C=C/c3cccc4[nH]ncc34)cn2)cc1N1CCNCC1 [N-(2-hydroxyethyl)-4-({5-[(E)-2-(1H-indazol-4-yl)vinyl]pyrimidin-2-yl}amino)-2-piperazin-1-ylbenzenesulfonamide trifluoroacetic acid salt] | 81 | 30 |
| O=S(=O)(c1ccc(Nc2ncc(/C=C/c3cc(C(F)(F)F)cc4[nH]nnc34)cn2)cc1)N1CCNCC1 [[4-(Piperazine-1-sulfonyl)-phenyl]-{5-[2-(6-trifluoromethyl-1H-benzotriazol-4-yl)-vinyl]-pyrimidin-2-yl}-amine] | 89 | 269 |
| Nc1nc2ccc(/C=C/c3cnc(Nc4ccc(S(=O)(=O)N5CCNCC5)c(F)c4)nc3)cc2s1 [6-[(E)-2-(2-{[3-fluoro-4-ylsulfonyl)phenyl]amino}pyrimidin-5-yl)vinyl]-1,3-benzothiazol-2-amine] | 94 | 100 |

The remaining lines, values ahead:

| IC50 (Abl (T315I)) [nM] | IC50 (Abl kinase) [nM] | Compound |
| --- | --- | --- |
| 10400 | 3450 | Cc1cc(S(=O)(=O)N2CCNCC2)ccc1Nc1ncc(/C=C/c2cccc(O)c2)cn1 [3-(2-{2-[2-Methyl-4-(piperazine-1-sulfonyl)-phenylamino]-pyrimidin-5-yl}-vinyl)-phenol] |
| 416 | 101 | Nc1nc2cc(/C=C/c3cnc(Nc4ccc(S(=O)(=O)C5CCNCC5)cc4)nc3)ccc2s1 [5-((E)-2-(2-(4-(piperidin-4-ylsulfonyl)phenylamino)pyrimidin-5-yl)vinyl)benzo[d]thiazol-2-amine Hydrochloride] |
| 22 | 1.7 | O=S(=O)(c1ccc(Nc2ncc(/C=C/c3cccc(O)c3)cn2)cc1)C1CCNCC1 [3-(2-{2-[4-(Piperidine-4-sulfonyl)-phenylamino]-pyrimidin-5-yl}-vinyl)-phenol] |
| 1010 | 506 | O=C(Nc1ccc(/C=C/c2cnc(Nc3ccc(S(=O)(=O)C4CCNCC4)cc3)nc2)cc1)c1cccc(C(F)(F)F)c1 [N-(4-((E)-2-(2-(4-(piperidin-4-ylsulfonyl)phenylamino)pyrimidin-5-yl)vinyl)phenyl)-3-(trifluoromethyl)benzamide Hydrochloride] |
| 282 | 12 | O=S(=O)(NC1CCNCC1)c1ccc(Nc2ncc(/C=C/c3cccc4[nH]ccc34)cn2)cc1 [4-{5-[2-(1H-Indol-4-yl)-vinyl]-pyrimidin-2-ylamino}-N-piperidin-4-yl-benzenesulfonamide] |
| 394 | 39 | Nc1nc2c(/C=C/c3cnc(Nc4ccc(S(=O)(=O)C5CCNCC5)cc4)nc3)cccc2s1 [4-((E)-2-(2-(4-(piperidin-4-ylsulfonyl)phenylamino)pyrimidin-5-yl)vinyl)benzo[d]thiazol-2-amine Hydrochloride] |
| 65 | 10 | Cc1nc(Nc2ccc(S(=O)(=O)C3CCNCC3)cc2)ncc1/C=C/c1cccc(O)c1 [3-((E)-2-(2-(4-(piperidin-4-ylsulfonyl)phenylamino)-4-methylpyrimidin-5-yl)vinyl)phenol hydrochloride] |
| 368 | 1390 | C=Cc1cnc(Nc2ccc(S(=O)(=O)C3CCNCC3)cc2)nc1 [N-(4-(piperidin-4-ylsulfonyl)phenyl)-5-vinylpyrimidin-2-amine trifluoroacetate] |
| 666 | 245 | O=S(=O)(c1ccc(Nc2ncc(/C=C/c3cc(C(F)(F)F)cc4[nH]cnc34)cn2)cc1)C1CCNCC1 [5-((E)-2-(6-(trifluoromethyl)-1H-benzo[d]imidazol-4-yl)vinyl)-N-(4-(piperidin-4-ylsulfonyl)phenyl)pyrimidin-2-amine.] |
| 96 | 3.8 | O=S(=O)(c1ccc(Nc2ncc(/C=C/c3cc(O)ccc3Cl)cn2)cc1)C1CCNCC1 [4-Chloro-3-(2-{2-[4-(piperidine-4-sulfonyl)-phenylamino]-pyrimidin-5-yl}-vinyl)-phenol] |
| 163 | 38 | O=S(=O)(c1ccc(Nc2ncc(/C=C/c3ccnc4[nH]ccc34)cn2)cc1)C1CCNCC1 [N-[4-(piperidin-4-ylsulfonyl)phenyl]-5-[(E)-2-(1H-pyrrolo[2,3-b]pyridin-4-yl)vinyl]pyrimidin-2-amine] |
| 141 | 7.1 | O=S(=O)(NCCN1CCCC1)c1ccc(Nc2ncc(/C=C/c3cccc(O)c3)cn2)cc1 [4-{5-[2-(3-Hydroxy-phenyl)-vinyl]-pyrimidin-2-ylamino}-N-(2-pyrrolidin-1-yl-ethyl)-benzenesulfonamide] |
| 3650 | 593 | O=S(=O)(c1ccc(Nc2ncc(/C=C/c3ccc4c(c3)CC/C4=N/O)cn2)cc1)C1CCNCC1 [5-(2-{2-[4-(Piperidine-4-sulfonyl)-phenylamino]-pyrimidin-5-yl}-vinyl)-indan-1-one oxime] |
